Where two headings read alike, the source gives them in different places.
Legend:
SF126 [1] = test: Matrigel outgrowth assay/branching assay; type: cell-based; details: Homo sapiens, SF-126, Table Vb, read-out: Total branching inhibition in Matrigel SF126
Procedure, shortened: (§1)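 Cells (5000/well) were seeded onto polymerized 3 mg/ml Matrigel with compound at 3.125, 1.56 or 0.78 μM, or DMSO. Imaging by inverted microscopy at 48, 72 and 96 h scored invasive branching. Only concentrations giving total branching inhibition counted as positive.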

Hs578T [2] = test: Matrigel outgrowth assay/branching assay; type: cell-based; details: Homo sapiens, Hs-578T; HS578T cell line; Table Ib; read-out: Total branching inhibition in Matrigel HS578T
Procedure, shortened: as §1

A172 = test: Matrigel outgrowth assay/branching assay; type: cell-based; details: Homo sapiens, A 172, Table Vb, read-out: Total branching inhibition in Matrigel A172
Procedure, shortened: as §1

U118 [3] = test: Matrigel outgrowth assay/branching assay; type: cell-based; details: Table Vb, read-out: Total branching inhibition in Matrigel U118
Procedure, shortened: as §1

indicated cell line = test: Wound healing migration assay (Table IV); type: cell-based; details: compounds at 12.5, 6.25, 3.125 μM, 48 h-72 h
Procedure, shortened: (§2)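 Cells seeded at 150000/24 well, grown to monolayer overnight, scratched with a pipette tip, then treated with compound at 12.5, 6.25 or 3.125 μM versus DMSO. Stopped by crystal violet fixation at 48-72 h once control wounds closed; IC50 taken as 50% wound size between t0 and t48 or t72.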

SF126 [4] = test: Cell vitality assay (ATP assay, CellTiter-Glo); type: cell-based; details: Homo sapiens, SF-126
Procedure, shortened: (§3)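 1000 cells/well incubated 72 h with compound at 12.5 down to 0.195 μM (twofold steps) or DMSO control. Viability measured as cellular ATP by CellTiter-Glo luminescence; IC50 taken as the concentration giving 50% of the DMSO-control ATP level.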

Hs578T [5] = test: Cell vitality assay (ATP assay, CellTiter-Glo); type: cell-based; details: Homo sapiens, Hs-578T; HS578T cell line, 72 h; Table Ib; read-out: IC50 ATP-Assay HS578T after 72 h
Procedure, shortened: as §3

U118 [6] = test: Cell vitality assay (ATP assay, CellTiter-Glo); type: cell-based
Procedure, shortened: as §3

Hs578T [7] = test: Wound healing migration assay; type: cell-based; details: Homo sapiens, Hs-578T; HS578T cell line; Table Ib
Procedure, shortened: as §2

[8] = Homo sapiens, A 172, A172 cells, read-out: IC50 Wound healing Assay A172
[9] = Homo sapiens, SF-126, SF126 cells, read-out: IC50 Wound healing Assay SF126
[10] = U118 cells, read-out: IC50 Wound healing Assay U118
[11] = SF126, 72 h, Table IIa, read-out: IC50 ATP-Assay after 72 h SF126
[12] = U118, 72 h, Table IIa, read-out: IC50 ATP-Assay after 72 h U118

| SMILES | IC100 (SF126 [1]) | IC50 (Hs578T [2]) | IC100 (A172) | IC100 (U118 [3]) | melting point | IC50 (indicated cell line; [8]) | IC50 (indicated cell line; [9]) | IC50 (indicated cell line; [10]) | IC50 (SF126 [4]; [11]) | IC50 (Hs578T [5]) | IC50 (U118 [6]; [12]) | IC50 (Hs578T [7]) | IC50 (SF126 [4]; cell vitality assay, SF126, Table IIb, read-out: IC50 SF126) | IC50 (U118 [6]; cell vitality assay, U118, Table IIc, read-out: IC50 U118) | IC50 (indicated cell line; Homo sapiens, C8161 cells, read-out: IC50 Wound healing Assay C8161) | IC50 (indicated cell line; SF763 cells, read-out: IC50 Wound healing Assay SF763) |
| --- | --- | --- | --- | --- | --- | --- | --- | --- | --- | --- | --- | --- | --- | --- | --- | --- |
| COc1cc2c(Oc3ccc(NS(=O)(=O)c4cccc(Cl)c4F)cc3F)ccnc2cc1OCCCN1CCCC(C)C1 (stereo not shown) [Example 54, 3-Chloro-2-fluoro-N-(3-fluoro-4-{6-methoxy-7-[3-(3-methyl-piperidin-1-yl)-propoxy]-quinolin-4-yloxy}-phenyl)-benzenesulfonamide] | ≤ 12.5 µM | 10 to 25 µM | > 12.5 µM | > 12.5 µM | 125 to 127 °C | ≤ 12.5 µM | ≤ 12.5 µM | ≤ 12.5 µM | 12.5 to 50 µM | ≤ 12.5 µM | ≤ 12.5 µM | ≤ 12.5 µM |  |  |  |  |
| COC(=O)c1sccc1S(=O)(=O)Nc1ccc(Oc2ccnc3cc(OCCCN4CCCC(C)C4)c(OC)cc23)c(F)c1 (stereo not shown) [Example 66, 3-(3-Fluoro-4-{6-methoxy-7-[3-(3-methyl-piperidin-1-yl)-propoxy]-quinolin-4-yloxy}-phenylsulfamoyl)-thiophene-2-carboxylic acid methyl ester] | ≤ 12.5 µM | 10 to 25 µM | > 12.5 µM | ≤ 12.5 µM | 132 to 134 °C | ≤ 12.5 µM | ≤ 12.5 µM | ≤ 12.5 µM | ≤ 12.5 µM | ≤ 12.5 µM | ≤ 12.5 µM | ≤ 12.5 µM | ≤ 12.5 µM | ≤ 12.5 µM |  |  |
| COc1cc2c(Oc3ccc(NS(=O)(=O)c4ccccc4OC(F)(F)F)cc3F)ccnc2cc1OCCCN1CCCCC1 [Example 78, N-{3-Fluoro-4-[6-methoxy-7-(3-piperidin-1-yl-propoxy)-quinolin-4-yloxy]-phenyl}-2-trifluoromethoxy-benzenesulfonamide] | ≤ 12.5 µM | ≤ 10 µM | > 12.5 µM | > 12.5 µM | 156 to 158 °C | ≤ 12.5 µM | ≤ 12.5 µM | ≤ 12.5 µM | ≤ 12.5 µM | ≤ 12.5 µM | ≤ 12.5 µM | ≤ 12.5 µM |  |  |  |  |
| COc1cc2c(Oc3ccc(NS(=O)(=O)c4ccccc4C(F)(F)F)cc3F)ccnc2cc1OCCCN(C)C [Example 100, N-{4-[7-(3-Dimethylamino-propoxy)-6-methoxy-quinolin-4-yloxy]-3-fluoro-phenyl}-2-trifluoromethyl-benzenesulfonamide] | ≤ 12.5 µM | ≤ 10 µM | > 12.5 µM | ≤ 12.5 µM | 89 to 91 °C | ≤ 12.5 µM | ≤ 12.5 µM | ≤ 12.5 µM | ≤ 12.5 µM | ≤ 12.5 µM | ≤ 12.5 µM | ≤ 12.5 µM |  |  | 12.5 to 50 µM | ≤ 12.5 µM |
| COc1cc2c(Oc3ccc(NS(=O)(=O)c4c(Cl)cccc4Cl)cc3F)ccnc2cc1OCCN1CCOCC1 [Example 104, 2,6-Dichloro-N-{3-fluoro-4-[6-methoxy-7-(2-morpholin-4-yl-ethoxy)-quinolin-4-yloxy]-phenyl}-benzenesulfonamide] | > 12.5 µM | 10 to 25 µM | > 12.5 µM | > 12.5 µM | 210 to 211 °C | 12.5 to 50 µM | ≤ 12.5 µM | ≤ 12.5 µM | 12.5 to 50 µM | ≤ 12.5 µM | 12.5 to 50 µM | ≤ 12.5 µM |  |  |  |  |
| COc1cc2c(Oc3ccc(NS(=O)(=O)c4cc(F)ccc4F)cc3Cl)ccnc2cc1OCCCN1CCN(C)CC1 [Example 112, N-(3-Chloro-4-{6-methoxy-7-[3-(4-methyl-piperazin-1-yl)-propoxy]-quinolin-4-yloxy}-phenyl)-2,5-difluoro-benzenesulfonamide] | ≤ 12.5 µM | ≤ 10 µM | ≤ 12.5 µM | ≤ 12.5 µM | 118 to 121 °C | ≤ 12.5 µM | ≤ 12.5 µM | ≤ 12.5 µM | ≤ 12.5 µM | ≤ 12.5 µM | ≤ 12.5 µM | ≤ 12.5 µM |  |  |  |  |
| COc1cc2c(Oc3ccc(NS(=O)(=O)c4c(Cl)cccc4Cl)cc3Cl)ccnc2cc1OCCCN1CCN(C)CC1 [Example 119, 2,6-Dichloro-N-(3-chloro-4-{6-methoxy-7-[3-(4-methyl-piperazin-1-yl)-propoxy]-quinolin-4-yloxy}-phenyl)-benzenesulfonamide] | ≤ 12.5 µM | ≤ 10 µM | ≤ 12.5 µM | ≤ 12.5 µM | 171 to 172 °C | ≤ 12.5 µM | ≤ 12.5 µM | ≤ 12.5 µM | ≤ 12.5 µM | ≤ 12.5 µM | ≤ 12.5 µM | ≤ 12.5 µM |  |  |  |  |
| COC(=O)c1sccc1S(=O)(=O)Nc1ccc(Oc2ccnc3cc(OCCCN4CCCCC4)c(OC)cc23)c(F)c1 [Example 155, 3-{3-Fluoro-4-[6-methoxy-7-(3-piperidin-1-yl-propoxy)-quinolin-4-yloxy]-phenylsulfamoyl}-thiophene-2-carboxylic acid methyl ester] | ≤ 12.5 µM | 10 to 25 µM | ≤ 12.5 µM | ≤ 12.5 µM | 138 to 139 °C | ≤ 12.5 µM | ≤ 12.5 µM | ≤ 12.5 µM | ≤ 12.5 µM | ≤ 12.5 µM | ≤ 12.5 µM | ≤ 12.5 µM |  |  |  |  |
| COC(=O)c1sccc1S(=O)(=O)Nc1ccc(Oc2ccnc3cc(OCCCN4CCC(C)CC4)c(OC)cc23)c(F)c1 [Example 156, 3-(3-Fluoro-4-{6-methoxy-7-[3-(4-methyl-piperidin-1-yl)-propoxy]-quinolin-4-yloxy}-phenylsulfamoyl)-thiophene-2-carboxylic acid methyl ester] | ≤ 12.5 µM | 10 to 25 µM | > 12.5 µM | ≤ 12.5 µM | 139 to 141 °C | ≤ 12.5 µM | ≤ 12.5 µM | ≤ 12.5 µM | ≤ 12.5 µM | ≤ 12.5 µM | ≤ 12.5 µM | ≤ 12.5 µM |  |  |  |  |
| COC(=O)c1sccc1S(=O)(=O)Nc1ccc(Oc2ccnc3cc(OCCCN4CCOCC4)c(OC)cc23)c(F)c1 [Example 157, 3-{3-Fluoro-4-[6-methoxy-7-(3-morpholin-4-yl-propoxy)-quinolin-4-yloxy]-phenylsulfamoyl}-thiophene-2-carboxylic acid methyl ester] | ≤ 12.5 µM | 10 to 25 µM | > 12.5 µM | > 12.5 µM | 167 to 168 °C | ≤ 12.5 µM | ≤ 12.5 µM | ≤ 12.5 µM | ≤ 12.5 µM | ≤ 12.5 µM | ≤ 12.5 µM | ≤ 12.5 µM |  |  |  |  |
| COC(=O)c1sccc1S(=O)(=O)Nc1ccc(Oc2ccnc3cc(OCCCN4CCN(C)CC4)c(OC)cc23)c(F)c1 [Example 158, 3-(3-Fluoro-4-{6-methoxy-7-[3-(4-methyl-piperazin-1-yl)-propoxy]-quinolin-4-yloxy}-phenylsulfamoyl)-thiophene-2-carboxylic acid methyl ester] | ≤ 12.5 µM | 10 to 25 µM | > 12.5 µM | ≤ 12.5 µM | 146 to 148 °C | ≤ 12.5 µM | ≤ 12.5 µM | ≤ 12.5 µM | ≤ 12.5 µM | ≤ 12.5 µM | ≤ 12.5 µM | ≤ 12.5 µM |  |  |  |  |
| COc1cc2c(Oc3ccc(NS(=O)(=O)c4c(F)cccc4F)cc3F)ccnc2cc1OCCCN(C)C [Example 178, N-{4-[7-(3-Dimethylamino-propoxy)-6-methoxy-quinolin-4-yloxy]-3-fluoro-phenyl}-2,6-difluoro-benzenesulfonamide] | ≤ 12.5 µM | ≤ 10 µM | > 12.5 µM | ≤ 12.5 µM | 125 to 127 °C | ≤ 12.5 µM | ≤ 12.5 µM | ≤ 12.5 µM | ≤ 12.5 µM | ≤ 12.5 µM | ≤ 12.5 µM | 12.5 to 50 µM |  |  |  |  |
